This note sets out measurements from patent US9556225B2, “Peptide stimulator of cell survival and proliferation” (União Química Farmacêutica Nacional S/A, priority 2014, dated 2017).

Where no end group is shown, it is not given here.

In one data set the test system is fibronectin. The data set is described as follows: Extracellular matrix molecules by fluorescence microscopy. The format is cell-based, human. The note with it: FN1 cells, 50 ng/ml, 48 h, 10% FBS. An excerpt: (§1) Previous studies have reported the importance of extracellular matrix components for maintaining cell survival of serum-deprived cells and that survival is enhanced by cell-cell contact. To confirm the synthesis of extracellular matrix molecules, fibroblast cultures were marked with antibodies specific for laminin and fibronectin following treatment with the synthetic peptide.
(§2) After treatment, the medium was removed and cells were washed with PBS and fixed with 3.7% paraformaldehyde for 10 minutes. Triton X-100 (0.1%) was added for 15 minutes for permeabilization of the plasma membrane, followed by addition of the primary antibody and incubation for 12 hours (overnight) in the dark at 4° C. The cells were washed with PBS, the secondary antibody was added and the cells were kept for 1 hour at room temperature in the dark. Antibodies were diluted according to the manufacturer's recommendation. After washing, the […] cell nuclei were stained with 4′,6-diamidino-2-phenylindole (DAPI) reagent (Invitrogen) and slides were mounted on coverslips containing 4 μl of antifade solution (Vectashield™, Vector-H1000, that serves to preserve fluorescence). Cells were viewed with an Axio™ Imager A1 fluorescence microscope (Carl Zeiss, Germany).
(§3) Primary antibodies in blocking buffer: 10% FBS, 1% BSA in TBS (0.1% Triton X-100 in PBS):
Rabbit polyclonal to Fibronectin (abcam): 2 μg/ml

In data set [1] the test system is FN1 fibroblasts. The data set is described as follows: Cell cycle phases by propidium iodide flow cytometry. The format is cell-based, human. To be noted: 48 hours. As for the experimental part:
The distribution of cells in the various cell cycle phases was determined by the content or amount of propidium iodide (PI) incorporated into the cell, measured by flow cytometry (Vindelov, L. L., I. J. Christensen, and N. I. Nissen, Standardization of high-resolution flow cytometric DNA analysis by the simultaneous use of chicken and trout red blood cells as internal reference standards. Cytometry, 1983. 3(5): p. 328-31). […] After treatment, the FN1 cell suspensions were resuspended in 70% ethanol and kept in a freezer at −20° C. for subsequent analysis of cell cycle phases. At the time of the experiment, cells were incubated in a PBS solution: 950 μl of PBS, 40 μl of PI (1 mg/ml) and 10 μl of Rnase: (10 mg/ml), to assess the quantity and integrity of DNA in the cell cycle phases. The results obtained by the acquisition program CellQuest™ acquired on a FACScalibur™ flow cytometer (Becton and Dickson, USA) were analyzed by FACS ModFit™ 2.8. The DNA content was expressed as mean percentage±standard error of the mean (SEM) of 3 independent experiments (Student's t test) of cells distributed in the different cell cycle phases: apoptotic cells, G0/G1, S and G2/M.
Background: In flow cytometry, cells or beads pass a laser one at a time.

The subject of a further data set is collagen I. Kind of data set: Extracellular matrix molecules by fluorescence microscopy. The note with it: FN1 cells, 50 ng/ml, 48 h, 10% FBS. The format is cell-based, human.
Excerpt: as §1, §2, §3
Mouse monoclonal to Collagen type I [Col-I] (abcam): 1/1000

The subject of data set [2] is FN1 fibroblasts. The data set is described as follows: Ultrastructure of fibroblasts by transmission electron microscopy (TEM). The format is cell-based, human. The note with it: 1% FBS, 50 ng/ml, 48 hours. An excerpt: Severe morphological changes in normal fibroblasts are observed after serum deprivation conditions consistent with those of apoptotic cell death. […] TEM provides ultra-structural evidence about the nature of cell death (Kulkarni, G. V. and C. A. McCulloch, Serum deprivation induces apoptotic cell death in a subset of Balb/c 3T3 fibroblasts. J Cell Sci, 1994. 107 (Pt 5): p. 1169-79).
Cells were washed 3 times with PBS and gently collected in a tube with the help of a cell scraper. The cell suspension was centrifuged, and the cell button re-suspended in a solution of 3% glutaraldehyde and 2% paraformaldehyde diluted in sodium cacodylate. The cell button was post-fixed in 1% solution of osmium tetroxide for 1 hour, washed with PBS and distilled water and dehydrated in a graded ethanol series (30, 60, 70, 80 and 100%). Finally, the epoxy resin was mixed with warm ethanol (1:1) for infiltration, and only the resin was used for the incorporation of cells (60° C./48 h). Ultrathin sections (50 nm) were cut with an ultramicrotome (Leica Ultracut™ UCT) and stained with 5% uranyl acetate in 50% ethanol and 2% aqueous solution of citrate. The obtained sections were photographed using a TEM (LEO™ 906E, Zeiss, […]) at an accelerating voltage of 80 kV.

The subject of data set [3] is human dermal fibroblasts (FN1). Kind of data set: Cell proliferation by CFDA-SE staining, flow cytometry. It is filed as cell-based. The note with it: FN1 cells; for proliferation / cytoprotection (CFDA-SE staining): 1% FBS, 48 hours; for proliferation rate (CFDA-SE staining): 10% FBS, 48 h, p<0.001 versus control 10% FBS. As for the experimental part: Quantitative assessment of cell proliferation was performed by staining cells with carboxyfluorescein succinimidyl ester (CFDA-SE), as described previously (Asquith, B., et al., Quantifying lymphocyte kinetics in vivo using carboxyfluorescein diacetate succinimidyl ester (CFSE). Proc Biol Sci, 2006. 273(1590): p. 1165-71; Lyons, A. B., Analysing cell division in vivo and in vitro using flow cytometric measurement of CFSE dye dilution. J Immunol Methods, 2000. 243(1-2): p. 147-54). CFDA-SE is a lipophilic dye which reacts with amino groups of peptides and proteins, forming a stable amide linkage, which can be detected using flow cytometry analysis. The CFDA-SE passively diffuses into cells. It is colorless and nonfluorescent until its acetate groups are cleaved by intracellular esterases to produce a highly fluorescent, amine reactive succinimidyl ester of carboxyfluorescein, which is well conserved and can be fixed with aldehyde fixatives. The excess reagent and unconjugated by products passively diffuse into the extracellular environment where they can be washed away. When parent cells divide, CFDA-SE dye is equally distributed to the daughter cells, which therefore have half of the fluorescence intensity of the parents. The reduction of fluorescence intensity of cell generations in cell proliferation is easily detected by flow cytometry.
For the assay, human dermal fibroblasts (FN1) cells were seeded in six-well plates (1×10^4 cells/well), incubated with […] CFDA—SE diluted in PBS, and cultured at 37° C. with 5% CO2 for 15 minutes protected from light, according to the manufacturer's instructions (Vybrant® CFDA SE Cell Tracer Kit, MolecularProbes). […] Subsequently, the cells were trypsinized and the cell buttons resuspended in 300 μl of FACS buffer with 2% paraformaldehyde and kept in the refrigerator until the moment of reading. Cell proliferation by CFDA—SE was estimated by the reduction in cell fluorescence. Fluorescence was determined for excitation at λ=492 nm and for emission at λ=517 nm (10000 events per sample) in a FACScalibur™ flow cytometry system (Becton and Dickson) using the CellQuest™ software. The parameters FSC (size) and SSC (granularity/complexity) was detected in linear scale and FL1-H on a logarithmic scale. Proliferation was analyzed using the program ModFit LT™ 2.0 (Verity Software House, Topsham, Me., USA). The figures are expressed as the average ±standard error of the mean (SEM) of 5 independent experiments (Student's t test).

In another data set the test system is FN1 cells. Kind of data set: Detection of intracellular reactive oxygen and nitrogen species (ROS). The format is cell-based, human. To be noted: for ROS production: serum-deprived (1% FBS). As for the experimental part: The detection of reactive species was performed by the ROS Detection Kit (Enzo Life Sciences, Plymouth Meeting, Pa.) according to the manufacturer's instructions. This assay allows detecting ROS production in living cells by flow cytometry. The dye detection reagent reacts with hydrogen peroxide, peroxynitrite and hydroxyl radicals. FN1 cells at a density of 10^6/ml were plated and cultured in 6-well plates for 24 hours in incubator containing 5% CO2 at 37° C. […] Then, the cells were washed with wash buffer supplied by the manufacturer and centrifuged at 1500 rpm for 10 minutes. The supernatant was discarded and the cell button resuspended in 200 μl of PBS. The fluorescence was determined at λ=485 nm for excitation and emission λ=590 nm for a FACScalibur™ flow cytometry system using CellQuest™ software with the acquisition of 10,000 events having as parameters FSC (size) and SSC (granularity/complexity) linear scale and FL1/FL2 on logarithmic scales. The results were expressed as the mean±SEM (standard error of the mean) of 3 independent experiments.

Data set [4] concerns Human umbilical vein endothelial cells (HUVEC). The data set is described as follows: MTT cytotoxicity and cell viability assay. The format is cell-based. The note with it: 72 h; for cell viability (MTT), significance relative to untreated control (1% FBS): p<0.01. As for the experimental part:
For in vitro cell culture tests, the peptide (previously dissolved in water and stored at −20° C.) was resuspended, at the desired concentration, in culture medium supplemented with fetal bovine serum (FBS). The concentration of FBS was selected depending on the requirements of each experiment.
The MTT method was used (Mosmann, T., Rapid colorimetric assay for cellular growth and survival: application to proliferation and cytotoxicity assays. J Immunol Methods, 1983. 65(1-2): p. 55-63). The viability test was performed in culture plates of 96 wells. […] After 72 h, the supernatant was discarded and the cells washed twice with phosphate buffered saline (PBS) at pH 7.4 and incubated at 37° C. for 3 h with 100 μl of 0.5 mg/ml MTT reagent (3-(4,5-dimethylthiazol-2-yl)-2,5-diphenyl tetrazolium bromide) in PBS. The supernatant was removed and the reaction was stopped with 100 μl of dimethyl sulfoxide (DMSO). Absorbance values were determined at 540 nm using a SpectraMax™ 190 automatic plate reader (Molecular Devices, USA).
The results were expressed as a percentage of cell viability relative to the untreated control at time zero (initial number of cells). Absorbance values were determined at 540 nm. The results were expressed as the average ±standard error of the mean (SEM) of 5 independent experiments. Statistical significance between the groups were determined by a one-way ANOVA test (*: p<0.05, **: p<0.01).

A further data set relates to vitronectin. The data set is described as follows: Extracellular matrix molecules by fluorescence microscopy. It is filed as cell-based, human. To be noted: FN1 cells, 50 ng/ml, 48 h, 10% FBS.
Excerpt: as §1, §2, §3
Mouse monoclonal [VN58-1] […]

The subject of another data set is laminin. The description is as above. The format is cell-based, human. The note with it: FN1 cells, 50 ng/ml, 48 h, 10% FBS.
Excerpt: as §1, §2, §3
Rabbit polyclonal to Laminin alpha 4 (abcam): 1/500

For data set [5] the following is noted: 125 μg/ml, 25° C., sodium phosphate buffer, pH 6.0 to 8.0, 24 hours.
Description: Measurement of the structural integrity of the peptide was carried out using sodium phosphate buffer at various pH values (6.0, 6.4, 6.8, 7.0, 7.4, 8.0) containing 125 μg/ml of the peptide. Peptide solutions were incubated overnight at room temperature (25° C.). Analyses of circular dichroism (CD) were performed on a J-810 spectropolarimeter controlled by Spectra Manager™ software (JASCO), using cuvettes with optical path length of 0.1 cm (Biotechnology Center—Instituto Butantan). The CD spectra were recorded in the range 183-260 nm every 0.1 nm. The spectrum of each sample was subtracted from the spectrum of the buffer without peptide.
Setting [6] is: 25 ng/ml, p<0.05 versus control 1% FBS.
Where [7] appears, read: 50 ng/ml, p<0.001 versus control 1% FBS.

For DYFKDGKDVN [LONO-Q], the production of fibronectin result with fibronectin is reported as “increased amounts”. The “apoptotic cells (fragmented DNA)” value in the data set on FN1 fibroblasts [1] (1% FBS, 50 ng/ml, n=3, mean±SEM, p<0.01 vs. control 1% FBS) was determined as 8.1±1.1%. Moreover, the “cells in S phase of the cell cycle” value in the data set on FN1 fibroblasts [1] (1% FBS, 50 ng/ml, n=3, mean±SEM, p<0.05 vs. control 1% FBS) came out at 17.2±1.5%. Moreover, in the data set on FN1 fibroblasts [1] (1% FBS, 25 or 50 ng/ml), the “S phase of the cell cycle, dose dependence” value was “apparent dose-dependent increase of the S phase”. For the same sequence, in the data set with FN1 fibroblasts [1] (10% FBS, 50 ng/ml, n=3, mean±SEM, p<0.05 vs. control 10% FBS), the “cells in G2/M” value amounted to 18.4±2.5%. In the data set with collagen I, the “production of collagen I” value is reported as “increased amounts”. Further, in the data set on FN1 fibroblasts [2], the “morphological changes induced by serum deprivation (TEM)” value is given as “retards most of the effects observed in serum deprived cells”. Moreover, the “proliferation / cytoprotection (CFDA-SE staining)” value in data set [3] (setting [6]) and in data set [3] (setting [7]) was “significant cytoprotection” each time. Besides, the “proliferation rate (CFDA-SE staining)” value in [3] (25 ng/ml) and in [3] (50 ng/ml) was “statistically significant increase in the proliferation rate” throughout. Further, the ROS generation entry with FN1 cells (normal cell growth (10% FBS)) is reported as “no statistically significant decrease in ROS generation”. For the same sequence, the ROS production result with FN1 cells (setting [6]) and in the data set on FN1 cells (setting [7]) was “statistically significant decrease of ROS production” throughout. Besides, in data set [4] (10% FBS, 50 ng/ml, p<0.05), the “cellular proliferation (MTT), significance” value is reported as “statistically significant results”. Further, the “cell viability (MTT)” value in data set [4] (HUVECs, 1% FBS (serum deprivation), dose response) was “stimulated cell viability in a dose-dependent manner”. Further, the “cell viability (MTT), significance relative to untreated control (1% FBS)” value in data set [4] (HUVECs, 25 ng/ml) is on record as “statistically significant results”; in data set [4] (HUVECs, 50 ng/ml), “statistically significant results”. For the same sequence, the “cellular proliferation (MTT)” value in data set [4] (normal conditions (10% FBS), dose response) is recorded as “stimulated the cellular proliferation in a dose-dependent manner”. Further, the production of vitronectin result in the data set with vitronectin is listed as “increased amounts”. Further, the production of laminin result in the data set with laminin was “increased amounts”. Moreover, the “Stability (circular dichroism)” value in [5] was “remains stable”.
